{
  "source": "paper PMC4691143",
  "about": "“Biochemical Characterization of An Arginine-Specific Alkaline Trypsin from Bacillus licheniformis” (International Journal of Molecular Sciences, 2015)",
  "system": "T1, B. licheniformis DMN6 trypsin (arginine-specific alkaline trypsin)",
  "T1 construct": "gene BLDMN6; native secreted enzyme purified from DMN6 culture supernatant (DEAE, Superdex 75); 44 kDa by SDS-PAGE",
  "test": "spectrophotometric hydrolysis at […] nm, Lineweaver-Burk",
  "assay_type": "biochemical, Bacillus licheniformis",
  "conditions": "25 °C, 50 mM Tris-HCl pH 9.0, 0.1-1.5 mM BAEE",
  "data": [
    {"smiles": "CCOC(=O)[C@H](CCCNC(=N)N)NC(=O)c1ccccc1", "note": "[BAEE]", "values": [
      {"measurement": "Km", "value": 880, "unit": "µM"}
    ]}
  ]
}
